Test results published in patent publication US10010585B2, “Methods of treating vestibular schwannoma and reducing hearing or neurite loss caused by vestibular schwannoma” (Massachusetts Eye and Ear Infirmary, priority 2014, dated 2018).
Values joined by “and” are separate entries in the source; they are usually repeats but may differ in a detail not shown here. Identical values can stand only once.

Assays:
rat cochlear explants = conditions: 1 mM (Zheng and Gao, 1996); cited from earlier work
[1] = system: cochlear explant cultures (hair cells and neurites); assay: Murine cochlear explant culture, hair cell, neurite and fiber damage counts; format: cell-based, CBA/CaJ mice; conditions: for number of IHCs per 100 μm length / number of OHCs / number of neurites / severity of fiber disorganization / damage: recombinant human protein 5 μg/mL, 48 hours; for severity of fiber disorganization / damage: scale 0 to 2
From the text: To develop an animal model to study hearing loss due to VS, cochlear explant cultures were established from postnatal CBA/CaJ mice aged P3-P5 (Jackson Laboratory, ME). Briefly, after decapitating the mouse, temporal bones were dissected from the skull in Hank's Balanced Salt Solution (Life Technologies, NY). The otic capsule encasing the cochlea was dissected out from each temporal bone. The otic capsule was carefully stripped away and the spiral ligament was peeled away from the entire cochlea, starting from the base. The basal turn of cochlea was then isolated using the dissecting knife (Fine Science Tools, CA), discarding the apical turn hook region. The tectorial membrane and the Reissner's membrane were removed, leaving the organ of Corti intact with the spiral ganglion neuron region. This explant was cultured onto a 10 mm glass coverslip coated with CellTak (BD Biosciences, CA, #354241) in a 35 mm culture dish with 4 wells. Cells were cultured in 98% DMEM, 1% ampicillin and 1% N2 supplement.
To assess FGF2's otoprotective effect, cochlear explant cultures were treated with recombinant human FGF2±gentamicin. After culturing the explants overnight, media fortified with FGF2 (100 ng/mL) was applied. Twenty-four hours later media fortified with gentamicin (1 mM) and FGF2 (100 ng/mL) was applied. […] Cochlear explants were fixed after an additional 24 hours of treatment, with total time being 48 hours.
After treatment, the explants were fixed and stained with antibodies against myosin 7A (Myo7A, Proteus Biosciences, CA) and β-tubulin (Tuj1, Covance, MA) to identify hair cells (HCs) and neurons, respectively. The same immunofluorescence protocol as described in Example 1 was used, with the exceptions of omission of […] HCl incubation, usage of 5% NHS with 1% Triton-X for blocking solution and 1% NHS with 0.4% Triton-X solution for primary antibody incubation at room temperature (RT). Secondary antibodies (Alexa Flour 555 anti-mouse and Alexa Four 488 anti-rabbit) were purchased from Life Technologies. Cochlear explants were imaged using a Leica TCS SP5 Confocal microscope. Zoomed-in pictures for the region of organ of Corti, including neurites, were merged in a z-stack to obtain a z-axis projection image in the Leica software. The number of hair cells (HCs) and neurites were manually counted per 100 μm length along the cochlea, with 1-2 samplings per specimen.
The same general methodology for murine cochlear explant cultures as described in Example 5 was utilized. Cochlear explant cultures were established from P2-P3 mice. Importantly, instead of only culturing the basal turn, the apical turn was also isolated, providing two pieces per cochlea with a greater frequency range. After approximately 12 hours, the cochlear explant cultures were treated for 48 hours with tumor secretions diluted to half their concentration. The formulation was 46.5% tumor-conditioned DMEM, 46.5% plain DMEM, 5% FBS, 1% ampicillin and 1% N2 supplement. Cochlear explants were treated with control media in parallel, being 46.5% DMEM incubated without tumor, 46.5% plain DMEM, 5% FBS, 1% ampicillin and 1% N2 supplement. All reagents were purchased from Life Technologies, NY. Osmolality in the solutions was measured in samples using a vapor-pressure osmometer (standardized with 290 mOsm/kg of 0.1567M sodium chloride solution) before applying them onto cochlear explants. Extra formulation for each VS secretion was made to be tested on Milliplex arrays and ELISA. Milliplex array, containing FGF2, VEGF-A and HGF beads (Millipore) and human TNFα ELISA (R&D Systems) were conducted as directed by the manufacturer on VS secretions prior to being applied onto the cochlear explant cultures.
Cochlear explants were fixed 48 hours after treatment and the same methodology for VS secretion application as described in Example 5 was utilized. […]

primary SCs = assay: BrdU proliferation assay in primary Schwann cell cultures; format: cell-based, human; conditions: 48 hours
Description: (§1) Proliferation rate of 12 VS cultures was assessed and correlated with the tumor volume in the latest gadolinium enhanced T1-weighted MRI scan prior to surgical resection, and with tumor growth in vivo, measured as changes in the tumor's volume over time calculated from serial MRI scans. Tumor growth was standardized by dividing the growth rate by the initial tumor volume. Separate analyses were performed for solid tumors, which generally account for approximately 96% of VSs (Charabi et al., 1994), versus all studied tumors, which included 4 out of 13 total tumors with a visible cystic component, because cystic components could misrepresent true tumor volume (Charabi et al., 1994). To determine the level of cell proliferation in the cultures, Bromodeoxyuridine (BrdU) was added to the cells at a concentration of 10 μg/ml 20 hours before the cells were fixed. The cells were kept in the dark after the addition of BrdU Immunofluorescence protocol was followed as described under ‘Immunofluorescence,’ and cell and nuclear membranes were permeablized by incubation in 1% Triton-X for 10 minutes and by incubation in 2N Hydrochloric acid for 20 minutes, respectively, after fixation. Primary antibody against BrdU (AbD Serotec, NC, 1:200) and anti-rat IgG (Life Technologies, NY, 1:1000) were used. BrdU- and Hoechst-stained nuclei were counted in 3-5 fields and the ratio of BrdU positive to Hoechst positive nuclei was used to determine the proliferation rate in vitro.
(§2) Cultured human primary VS cells, primary SCs and HEI-193 cells were treated with NF-κB inhibitors BAY11-7082 (BAY11) or curcumin for 48 hours (Santa Cruz Biotechnology). BAY11 or curcumin, diluted in 100% DMSO, were mixed to the accurate concentrations in warmed media and applied to the cultures (with DMSO concentration in media being 1% maximum), alongside a no-treatment control receiving media alone with appropriate corresponding DMSO levels. Experiments were performed in media fortified with antibiotics and serum (same formulation as described in Example 1 for culturing cells).
(§3) After 48 hours of treatment, primary VS and Schwann cultures were fixed for BrdU staining, to visualize proliferation, or TUNEL staining, to visualize cell death. The same methodology as described in Example 1 was utilized. Cleaved caspase 3 staining, another apoptosis marker to reinforce findings using TUNEL, was conducted using an antibody against cleaved caspase 3 following the ‘immunofluorescence’ protocol outlined in Example 1.
(§4) The cultures were incubated with the drugs for 48 hours. To label proliferating cells, BrdU was added 20 hours before fixation. pH was measured in the media after drug addition to ensure no significant deviations.
(§5) After 48 hours of treatment with salicylates, primary VS and SC cultures were fixed for BrdU staining, to visualize proliferation, or TUNEL staining, to visualize cell death. The same methodology as described in Example 1 was utilized.

sporadic VS = conditions: retrospective study, serial MRI scans (Kandathil et al., 2014); cited from earlier work
primary VS cells [2] = assay: BrdU proliferation assay in primary VS cultures; format: cell-based, human; conditions: 48 hours
Description: as §1, with “vitro. […]” for “vitro.”
as §2, §3, §4, §5
To understand cross-talk between HGF and VEGF-A pathway, cultured VS cells were incubated with Life Technologies silencer select siRNAs targeting VEGFA (s461) or MET (s8700). To understand whether HGF signaling contributed to VS proliferation, cultured VS cells were treated with MET inhibitor SU11274 (Sigma-Aldrich, MO, #S9820). Seventy-two hours after siRNA treatment or 12 hours after treatment with SU11274 (2 μM), cells were incubated with 10 μg/mL BrdU (Life Technologies, NY, # B23151) for 20 hours before fixation.

COX-2 = conditions: 5 mM, 48 hours, VS culture media
Description: Prostaglandin (PTG) E2 was assayed in the media of VS cultures using the Prostaglandin E2 Parameter Assay Kit (R&D Systems, KGE004B). The media was collected after 48 hours of treatment from non-treated and treated cultured cells. Manufacturer's instructions were closely followed.
as §4

primary VS cells [3] = assay: TUNEL cell death assay in primary VS cultures; format: cell-based, human; conditions: 48 hours
Description: Rate of apoptosis in 6 VS cultures was assessed and correlated with tumor growth in vivo and tumor volume. […] Apoptosis was measured using terminal deoxynucleotidyl transferase dUTP nick end labeling (TUNEL, Roche Applied Sciences, NY) following manufacturer's instructions. Briefly, immunofluorescence protocol was followed as described under ‘Immunofluorescence,’ until fixations, then the cells were washed with PBS thrice and incubated in 1% Triton-X for 10 minutes on shaker. The cells were washed with PBS once and incubated in TUNEL mix for 1 hour at 37° C., then for 30 minutes at RT on shaker. The cells were then incubated in rhodamine phalloidin (Life Technologies, NY, 1:40) and Hoechst stain for 20 minutes, washed with PBS thrice and mounted onto slides for imaging. TUNEL and Hoechst stained nuclei were counted in >3 fields and the ratio of TUNEL positive to Hoechst positive nuclei was used to determine apoptosis rate in vitro. A positive control of 10 minutes-DNAse (Roche Applied Sciences, NY) treatment prior to TUNEL labeling was utilized.
For siRNA treatment, cultured primary VS cells or HEI-193 cells were placed in antibiotic and serum free media overnight. The next day, the cells were incubated with Life Technologies siRNAs targeting NF-κB genes RELA and NF-κB1, with control cells being treated with vehicle only (Lipofectamine RNAiMax), for 5 days. Some cultures were also incubated with a fluorescent random Oligo (Life Technologies) along with vehicle to assess transfection efficiency. siRNA experiments were performed in antibiotic and serum free media.
BAY11 or curcumin, diluted in 100% DMSO, were mixed to the accurate concentrations in warmed media and applied to the cultures (with DMSO concentration in media being 1% maximum), alongside a no-treatment control receiving media alone with appropriate corresponding DMSO levels.
After 48 hours of treatment, primary VS and Schwann cultures were fixed for BrdU staining, to visualize proliferation, or TUNEL staining, to visualize cell death.
After 48 hours of treatment with salicylates, primary VS and SC cultures were fixed for BrdU staining, to visualize proliferation, or TUNEL staining, to visualize cell death.

HGF = assay: Mouse HGF ELISA on cochlear explants; format: cell-based; conditions: recombinant human protein 5 μg/mL, 48 hours; control 48.1±17.0
Description: Recombinant human VEGF-A (R&D Systems), diluted in culture media to a 5 μg/mL concentration, was applied to cochlear explants for 48 hours. The explants were fixed and the same protocol as outlined previously was followed (Example 6). […] Plain media with neutralization VEGF-A antibody and VS secretions incubated with only goat IgGs (R&D Systems, MN) were prepared simultaneously as controls. Success of VEGF-A neutralization was confirmed using ELISA.
Human VEGF-A ELISA and mouse HGF ELISA kits were purchased from R&D systems and manufacturer's protocols were followed.

## gentamicin
Rat cochlear explants
  HC loss: almost complete HC loss
  neurites lost: 25%
[1]; 1 mM gentamicin, basal turn, NT 13.1±1.7
  number of neurites per 100 μm: 7.3±2.3 per 100 μm
[1]; 1 mM gentamicin, basal turn, NT 49.1±8.7
  total number of HCs per 100 μm length: 10.4±7.0 per 100 μm

## CC(=O)Oc1ccccc1C(=O)O [aspirin]
Primary SCs; 1 mM
  normalized proliferation rate, of the NT cells: 124.4±72.9%
Primary SCs; 5 mM
  proliferation, of the NT cells: 198.1±141.3%
Sporadic VS
  probability of VS growth in comparison to VS patients not taking aspirin: approximately half
Primary VS cells [2]; 1 mM
  proliferation, of the NT cells: 129.6±26.2%
Primary VS cells [2]; 5 mM
  proliferation, of the NT cells: 19% and 19.3±5.5%
COX-2
  secreted PTG levels, of NT cells: 3.1%
Primary VS cells [3]; 1 mM
  cell death rate: 0.6±0.3%
Primary VS cells [3]; 5 mM
  cell death rate: 2.8±2.2%

## TNFα
[1]; apical turn
  number of IHCs per 100 μm length: 13.2±1.0 per 100 μm
  number of OHCs: 39.1±2.2 per 100 μm
  number of neurites: 14.3±2.9 per 100 μm
  severity of fiber disorganization / damage: 0.2±0.5
[1]; basal turn
  number of IHCs per 100 μm length: 12.1±2.8 per 100 μm
  number of OHCs: 31.8±14.9 per 100 μm
  number of neurites: 11.3±2.4 per 100 μm
  severity of fiber disorganization / damage: 0.8±0.4
HGF
  secreted HGF levels in cochlear explants: did not lead to changes
